Like-named read-outs stand apart in the source and are kept apart here. Bridge positions count the residues as written; N and C are the ends. Square brackets hold non-standard residues; d marks the D form. Peptide text beside a SMILES is read from it. * marks the point of attachment. Trp(6-F) = N[C@@H](Cc1c[nH]c2cc(F)ccc12)C(=O)O; Trp(6-Me) = Cc1ccc2c(C[C@H](N)C(=O)O)c[nH]c2c1; hArg = N=C(N)NCCCC[C@H](N)C(=O)O; Pentanoyl = CCCCC(=O)*; Ahp = NCCCCCCC(=O)O; Butyryl = CCCC(=O)*; Ahx = NCCCCCC(=O)O; Ava = NCCCCC(=O)O

For assay [1], the system named is His-EGF(A)-Fc. In words: His-EGF(A)-Fc TR-FRET counterscreen.
Assay [2] concerns the target T1, PCSK9Δhelix (Homo sapiens, UniProt Q8NBP7).
T1 construct: Human PCSK9 construct M1-Q692 with an engineered TEV site (residue deletion Y166, R167); made in house; host or cells: CHO
Description: PCSK9Δhelix/Ab20 TR-FRET binding assay. Particulars: for IC50: TR-FRET, read-out: PCSK9Δhelix/Ab20 IC50.
Description: The former was based on a TF-FRET assay to measure the association of the EGF(A) domain of the LDLR to PCSK9 (“PCSK9/EGF(A) binding assay”) whilst the latter was based on a TR-FRET assay to measure binding of Ab20 to PCSK9Δhelix (“PCSK9Δhelix/Ab20 binding assay”).
The ability of compounds to inhibit binding to PCSK9 was evaluated with a panel of time-resolved fluorescence resonance energy transfer (TR-FRET) binding assays. […] The PCSK9Δhelix/Ab20 binding assay evaluated the ability of compounds to compete with Ab20 for binding to the N-terminal groove region in a His-tagged, PCSK9Δhelix construct. […] Signal generation in the PCSK9 binding assays was dependent upon the binding interaction to bring into close proximity the His-tag on the PCSK9 and the Fc-tag on the ligand. Anti-His-APC was bound to the His-tag, and anti-Fc-europium was bound to the Fc-tag. When these two antibodies were in close proximity and were irradiated with light at 340 nm, the europium was excited and emitted energy at 615 nm. This energy was taken up by the APC and was emitted as light at 665 nm. Compounds that competed with the ligand reduced the energy transfer and thus the emission at 665 nm. In the His-EGFA-Fc molecule in the counterscreen, the two tags were always in close proximity, thus any reduction in emission at 665 nm was due to interference with the detection system.
Compounds were solubilized and dilutions were prepared in DMSO. […] The plate was centrifuged to mix the well contents and allowed to incubate for 30 min. […] The TR-FRET signal was read on a ViewLux reader (PerkinElmer) with excitation at 340 nm and emission at 615 and 665 nm with a 50-μs time delay between excitation and measurement of emission. The TR-FRET ratio was calculated as the fluorescence emission at 665 nm divided by the fluorescence emission at 615 nm. The normalized TR-FRET ratios were plotted as a function of the compound concentrations, and the IC50 values were determined using a 4-parameter logistic regression.
In black 1536-well assay plates (MaKO, Aurora® Microplates, Whitefish, Mont.), 40 nL of peptide in DMSO were preincubated with 2 μL His-tagged PCSK9 plus anti-His-allophycocyanin in assay buffer (50 mM Tris-HCl, pH 7.5, 150 mM NaCl, 2 mM CaCl2, 0.01% Tween®-20, 0.1% bovine gamma globulins, and protease inhibitor cocktail) for 30 min. Then 2 μL of Fc-tagged ligand and anti-Fc-europium in assay buffer were added and allowed to incubate for 2 h.

Assay [3] concerns the target PCSK9 (Homo sapiens, UniProt Q8NBP7). In words: PCSK9/EGF(A) TR-FRET binding assay. Particulars: TR-FRET, read-out: PCSK9/EGF(A) IC50. Background: In TR-FRET formats the signal depends on donor and acceptor labels being close together.
Setting [4] is: TR-FRET counterscreen, Table 8D, * = some inhibition at highest concentrations, not sufficient to fit an IC50.
Setting [5] is: Table 8D, disulfide-cyclized extension peptides.
Setting [6] is: TR-FRET counterscreen, Table 8E, additional compounds.

T1 sequence (Q8NBP7 with tags, fused parts or gaps limits assumed): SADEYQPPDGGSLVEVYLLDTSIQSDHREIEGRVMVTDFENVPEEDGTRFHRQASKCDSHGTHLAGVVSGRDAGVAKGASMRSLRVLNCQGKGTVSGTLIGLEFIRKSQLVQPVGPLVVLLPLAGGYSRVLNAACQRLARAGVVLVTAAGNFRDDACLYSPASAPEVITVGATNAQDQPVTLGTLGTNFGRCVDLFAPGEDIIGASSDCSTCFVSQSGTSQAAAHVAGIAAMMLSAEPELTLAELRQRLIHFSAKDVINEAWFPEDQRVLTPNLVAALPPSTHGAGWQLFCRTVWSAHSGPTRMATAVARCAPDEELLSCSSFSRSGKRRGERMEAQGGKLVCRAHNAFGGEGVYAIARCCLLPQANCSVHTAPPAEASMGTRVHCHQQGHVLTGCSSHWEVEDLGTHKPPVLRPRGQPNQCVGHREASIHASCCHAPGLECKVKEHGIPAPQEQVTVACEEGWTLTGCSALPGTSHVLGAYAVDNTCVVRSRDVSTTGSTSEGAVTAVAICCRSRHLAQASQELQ
T1 sequence (Q8NBP7 31-152 partner limits assumed): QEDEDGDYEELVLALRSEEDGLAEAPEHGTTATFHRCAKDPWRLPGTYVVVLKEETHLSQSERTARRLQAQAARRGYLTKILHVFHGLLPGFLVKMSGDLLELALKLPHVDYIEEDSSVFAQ
PCSK9, sequence (Q8NBP7 153-692): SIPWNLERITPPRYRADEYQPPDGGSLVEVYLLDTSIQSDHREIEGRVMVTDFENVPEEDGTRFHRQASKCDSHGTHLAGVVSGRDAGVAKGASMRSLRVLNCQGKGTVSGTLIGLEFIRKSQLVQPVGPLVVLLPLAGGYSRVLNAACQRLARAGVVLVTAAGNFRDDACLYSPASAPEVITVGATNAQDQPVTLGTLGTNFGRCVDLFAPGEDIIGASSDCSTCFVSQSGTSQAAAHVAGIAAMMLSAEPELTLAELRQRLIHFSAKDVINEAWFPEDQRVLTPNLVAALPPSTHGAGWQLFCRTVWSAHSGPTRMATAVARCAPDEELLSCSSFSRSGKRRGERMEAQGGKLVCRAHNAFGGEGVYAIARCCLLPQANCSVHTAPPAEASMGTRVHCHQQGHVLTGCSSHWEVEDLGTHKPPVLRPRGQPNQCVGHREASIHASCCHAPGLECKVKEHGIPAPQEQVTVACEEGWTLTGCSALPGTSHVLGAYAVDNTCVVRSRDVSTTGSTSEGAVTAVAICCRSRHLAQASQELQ
PCSK9, sequence (Q8NBP7 31-152 partner limits assumed): as the sequence (Q8NBP7 31-152 partner limits assumed) above

Turning to `CC[C@H](C)[C@@H]1NC(=O)[C@H](CCCNC(=N)N)NC(=O)[C@H](CCC(N)=O)NC(=O)[C@H](CC(C)C)NC(=O)[C@H](CC(N)=O)NC(=O)[C@H](Cc2c[nH]c3ccccc23)NC(=O)[C@@H]2CCCN2C(=O)[C@H](CC(C)C)NC(=O)[C@@H](CCCNC(=N)N)NC(=O)[C@@H](NC(C)=O)CSSC[C@@H](C(N)=O)NC(=O)[C@@H]2CCCN2C(=O)[C@H](CC(C)C)NC(=O)CNC1=O` [Compound 109] (Ac-C[dR]LPWNLQRIGLPC-NH2; disulfide 1-14), the IC50 in assay [1] (setting [4]) was > 50 µM; in assay [2] (setting [5]), 1.67 µM; in assay [3] (setting [5]), > 50 µM.

Take `CCCCC(=O)N[C@@H](Cc1c[nH]c2ccccc12)C(=O)N[C@@H](CC(N)=O)C(=O)N[C@@H](CC(C)C)C(=O)N[C@H](C(=O)N[C@@H](CCCNC(=N)N)C(=O)N[C@H](C(=O)NCC(=O)N[C@@H](CC(C)C)C(=O)N[C@@H](CC(C)C)C(=O)N[C@@H](CCCNC(=N)N)C(N)=O)[C@@H](C)CC)C(C)C` [Compound 111] (Pentanoyl-WNLVRIGLLR-NH2): the IC50 was > 50 µM in assay [1] (counterscreen, Example 7); 4.9 µM in assay [2] (Example 7); > 50 µM in assay [3] (Example 7).

Take `CCCCC(=O)N[C@@H](Cc1c[nH]c2ccccc12)C(=O)N[C@@H](CC(N)=O)C(=O)N[C@@H](CC(C)C)C(=O)N[C@H](C(=O)N[C@@H](CCCNC(=N)N)C(=O)N[C@H](C(=O)NCC(=O)N[C@H](C(=O)N[C@H](C(=O)N[C@@H](CCCNC(=N)N)C(N)=O)[C@@H](C)O)[C@@H](C)O)[C@@H](C)CC)C(C)C` [Compound 113] (Pentanoyl-WNLVRIGTTR-NH2): the IC50 in assay [1] (counterscreen, Example 7) was > 50 µM; in assay [2] (Example 7), > 50 µM; in assay [3] (Example 7) it was > 50 µM.

For the molecule `CCCCC(=O)N[C@@H](Cc1c[nH]c2ccccc12)C(=O)N[C@@H](CC(N)=O)C(=O)N[C@@H](CC(C)C)C(=O)N[C@H](C(=O)N[C@@H](CCCNC(=N)N)C(=O)N[C@H](C(=O)NCC(=O)N[C@H](C(=O)N[C@@H](CC(C)C)C(=O)N[C@@H](CCCNC(=N)N)C(N)=O)[C@@H](C)O)[C@@H](C)CC)C(C)C` [Compound 114] (Pentanoyl-WNLVRIGTLR-NH2), the IC50 in assay [1] (counterscreen, Example 7) was > 50 µM; in assay [2] (Example 7) it was > 50 µM; in assay [3] (Example 7), > 50 µM.

Consider `CC[C@H](C)[C@@H]1NC(=O)[C@H](CCCNC(=N)N)NC(=O)[C@H](CCC(N)=O)NC(=O)[C@H](CC(C)C)NC(=O)[C@H](CC(N)=O)NC(=O)[C@H](Cc2c[nH]c3ccccc23)NC(=O)[C@@H]2CCCN2C(=O)[C@H](CC(C)C)NC(=O)[C@H](CCCNC(=N)N)NC(=O)[C@@H](NC(C)=O)CSSC[C@@H](C(N)=O)NC(=O)CCCCNC1=O` [Compound 115] (Ac-CRLPWNLQRI[Ava]C-NH2; disulfide 1-12), for which the IC50 in assay [1] (setting [4]), in assay [2] (setting [5]) and in assay [3] (setting [5]) was > 50 µM each time.

With `CC[C@H](C)[C@@H]1NC(=O)[C@H](CCCNC(=N)N)NC(=O)[C@H](CCC(N)=O)NC(=O)[C@H](CC(C)C)NC(=O)[C@H](CC(N)=O)NC(=O)[C@H](Cc2c[nH]c3ccccc23)NC(=O)[C@@H]2CCCN2C(=O)[C@H](CC(C)C)NC(=O)[C@H](CCCNC(=N)N)NC(=O)[C@@H](NC(C)=O)CSSC[C@@H](C(N)=O)NC(=O)CCCCCNC1=O` [Compound 116] (Ac-CRLPWNLQRI[Ahx]C-NH2; disulfide 1-12), the IC50 in assay [1] (setting [4]) is > 50 µM; in assay [2] (setting [5]), 31.6 µM; in assay [3] (setting [5]), > 50 µM. Moreover, in assay [2], the “inhibition in the PCSK9Δhelix/Ab20 binding assay” value is recorded as “weak but detectable inhibition”.

In the case of `CC[C@H](C)[C@@H]1NC(=O)[C@H](CCCCNC(=N)N)NC(=O)[C@H](CCC(N)=O)NC(=O)[C@H](CC(C)C)NC(=O)[C@H](CC(N)=O)NC(=O)[C@H](Cc2c[nH]c3ccccc23)NC(=O)[C@@H]2CCCN2C(=O)[C@H](CC(C)C)NC(=O)[C@H](CCCNC(=N)N)NC(=O)[C@@H](NC(C)=O)CSSC[C@@H](C(N)=O)NC(=O)[C@@H]2CCCN2C(=O)[C@H](CC(C)C)NC(=O)CNC1=O` [Compound 117] (Ac-CRLPWNLQ[hArg]IGLPC-NH2; disulfide 1-14), the figures for the IC50 in assay [1] (setting [4]), in assay [2] (setting [5]) and in assay [3] (setting [5]) were > 50 µM, 0.334 µM and > 50 µM, respectively.

Turning to `CC[C@H](C)[C@@H]1NC(=O)[C@H](CCCNC(=N)N)NC(=O)[C@H](CCC(N)=O)NC(=O)[C@H](CC(C)C)NC(=O)[C@H](CC(N)=O)NC(=O)[C@H](Cc2c[nH]c3ccccc23)NC(=O)[C@@H]2CCCN2C(=O)[C@H](CC(C)C)NC(=O)[C@H](CCCNC(=N)N)NC(=O)[C@@H](NC(C)=O)CSSC[C@@H](C(N)=O)NC(=O)CCCCCCNC1=O` [Compound 121] (Ac-CRLPWNLQRI[Ahp]C-NH2; disulfide 1-12), the IC50 was > 50 µM in assay [1] (setting [4]), 40.3 µM in assay [2] (setting [5]) and > 50 µM in assay [3] (setting [5]). In assay [2], the “inhibition in the PCSK9Δhelix/Ab20 binding assay” value is listed as “weak but detectable inhibition”.

Consider `CCCC(=O)N[C@@H](Cc1c[nH]c2ccccc12)C(=O)N[C@@H](CC(N)=O)C(=O)N[C@@H](CC(C)C)C(=O)N[C@H](C(=O)N[C@@H](CCCNC(=N)N)C(=O)N[C@H](C(=O)NCC(=O)N[C@@H](CC(C)C)C(=O)N[C@@H](CC(C)C)C(=O)N[C@@H](CCCNC(=N)N)C(N)=O)[C@@H](C)CC)C(C)C` [Compound 123] (Butyryl-WNLVRIGLLR-NH2), for which the IC50 was ≥ 50 µM in assay [1] (setting [6]); 18 µM in assay [2] (Table 8E, additional compounds); ≥ 50 µM in assay [3] (Table 8E, additional compounds).

Turning to `CCCCC(=O)N[C@@H](Cc1c[nH]c2ccccc12)C(=O)N[C@@H](CC(N)=O)C(=O)N[C@@H](CC(C)C)C(=O)N[C@H](C(=O)N[C@@H](CCCNC(=N)N)C(=O)N[C@H](C(=O)NCC(=O)N[C@@H](CC(C)C)C(=O)N[C@@H](CC(C)C)C(=O)N[C@@H](CCCNC(=N)N)C(=O)O)[C@@H](C)CC)C(C)C` [Compound 152] (Pentanoyl-WNLVRIGLLR-OH), the IC50 was ≥ 50 µM in assay [1] (setting [6]); 14 µM in assay [2] (Table 8E, additional compounds); 43 µM in assay [3] (Table 8E, additional compounds).

For the molecule `CCCCC(=O)N[C@@H](Cc1c[nH]c2ccccc12)C(=O)N[C@@H](CC(N)=O)C(=O)N[C@@H](CC(C)C)C(=O)N[C@@H](CCCCN)C(=O)N[C@@H](CCCNC(=N)N)C(=O)N[C@H](C(=O)NCC(=O)N[C@@H](CC(C)C)C(=O)N[C@@H](CC(C)C)C(=O)N[C@@H](CCCNC(=N)N)C(N)=O)[C@@H](C)CC` [Compound 159] (Pentanoyl-WNLKRIGLLR-NH2), the IC50 was ≥ 50 µM in assay [1] (setting [6]); 6.6 µM in assay [2] (Table 8E, additional compounds); ≥ 50 µM in assay [3] (Table 8E, additional compounds).

For the molecule `CCCCC(=O)N[C@@H](Cc1c[nH]c2cc(F)ccc12)C(=O)N[C@@H](CC(N)=O)C(=O)N[C@@H](CC(C)C)C(=O)N[C@H](C(=O)N[C@@H](CCCNC(=N)N)C(=O)N[C@H](C(=O)NCC(=O)N[C@@H](CC(C)C)C(=O)N[C@H](C(=O)N[C@@H](CCCNC(=N)N)C(N)=O)[C@@H](C)O)[C@@H](C)CC)C(C)C` [Compound 174] (Pentanoyl-[Trp(6-F)]NLVRIGLTR-NH2), the IC50 in assay [1] (setting [6]) is ≥ 50 µM; in assay [2] (Table 8E, additional compounds), 6.2 µM; in assay [3] (Table 8E, additional compounds), ≥ 50 µM.

In the case of `CCCCC(=O)N[C@@H](Cc1c[nH]c2cc(C)ccc12)C(=O)N[C@@H](CC(N)=O)C(=O)N[C@@H](CC(C)C)C(=O)N[C@H](C(=O)N[C@@H](CCCNC(=N)N)C(=O)N[C@H](C(=O)NCC(=O)N[C@@H](CC(C)C)C(=O)N[C@H](C(=O)N[C@@H](CCCNC(=N)N)C(N)=O)[C@@H](C)O)[C@@H](C)CC)C(C)C` [Compound 175] (Pentanoyl-[Trp(6-Me)]NLVRIGLTR-NH2), the IC50 in assay [1] (setting [6]) was ≥ 50 µM; in assay [2] (Table 8E, additional compounds), 39 µM; in assay [3] (Table 8E, additional compounds), ≥ 50 µM.

In the case of `CCCCC(=O)N[C@@H](Cc1c[nH]c2ccccc12)C(=O)N[C@@H](CC(N)=O)C(=O)N[C@@H](CC(C)C)C(=O)N[C@H](C(=O)N[C@@H](CCCNC(=N)N)C(=O)N[C@H](C(=O)NCC(=O)N[C@@H](CC(C)C)C(=O)N[C@H](C(=O)N[C@@H](CCCNC(=N)N)C(=O)O)[C@@H](C)O)[C@@H](C)CC)C(C)C` [Compound 176] (Pentanoyl-WNLVRIGLTR-OH), the IC50 is ≥ 50 µM in assay [1] (setting [6]); 18 µM in assay [2] (Table 8E, additional compounds); ≥ 50 µM in assay [3] (Table 8E, additional compounds).

`CCCCC(=O)N[C@@H](Cc1c[nH]c2ccccc12)C(=O)N[C@@H](CC(N)=O)C(=O)N[C@@H](CC(C)C)C(=O)N[C@H](C(=O)N[C@@H](CCCNC(=N)N)C(=O)N[C@H](C(=O)NCC(=O)N[C@@H](CC(C)C)C(=O)N[C@@H](CC(=O)O)C(=O)N[C@@H](CCCNC(=N)N)C(N)=O)[C@@H](C)CC)C(C)C` [Compound 178] (Pentanoyl-WNLVRIGLDR-NH2): the IC50 was ≥ 50 µM in assay [1] (setting [6]); 18 µM in assay [2] (Table 8E, additional compounds); ≥ 50 µM in assay [3] (Table 8E, additional compounds).

Consider `CCCCC(=O)N[C@@H](Cc1c[nH]c2ccccc12)C(=O)N[C@@H](CC(N)=O)C(=O)N[C@@H](CC(C)C)C(=O)N[C@H](C(=O)N[C@@H](CCCNC(=N)N)C(=O)N[C@H](C(=O)NCC(=O)N[C@@H](CC(C)C)C(=O)NCC(=O)N[C@@H](CCCNC(=N)N)C(N)=O)[C@@H](C)CC)C(C)C` [Compound 179] (Pentanoyl-WNLVRIGLGR-NH2), for which the IC50 in assay [1] (setting [6]) is ≥ 50 µM; in assay [2] (Table 8E, additional compounds), 11 µM; in assay [3] (Table 8E, additional compounds), ≥ 50 µM.

Turning to `CCCCC(=O)N[C@@H](Cc1c[nH]c2ccccc12)C(=O)N[C@@H](CC(N)=O)C(=O)N[C@@H](CC(C)C)C(=O)N[C@H](C(=O)N[C@@H](CCCNC(=N)N)C(=O)N[C@H](C(=O)NCC(=O)N[C@@H](CC(C)C)C(=O)N[C@@H](C)C(=O)N[C@@H](CCCNC(=N)N)C(N)=O)[C@@H](C)CC)C(C)C` [Compound 180] (Pentanoyl-WNLVRIGLAR-NH2), the IC50 in assay [1] (setting [6]) was ≥ 50 µM; in assay [2] (Table 8E, additional compounds), 12 µM; in assay [3] (Table 8E, additional compounds), ≥ 50 µM.

These data come from US11034725B2, “Compositions and methods for treating cardiovascular disease” (Genentech, Inc., priority 2016, dated 2021).
